From patent publication US7915050B2, “Regulatory genes for plant differentiation and growth, and use of the same” (National University Corporation Nagoya University, priority 2005, dated 2011) come the findings set out here.

Where two headings read alike, the source gives them in different places.

The target in test [1] is T1, GID1 (Oryza sativa subsp. japonica, UniProt Q6L545).
T1 construct: GST (tag of vector pGEX-4T) (N); made in house
Put plainly: Saturation/Scatchard and association/dissociation analysis of GA binding to recombinant GID1. On the set-up: species or system rice. The procedure: Panel a) depicts the saturability for the GA binding of GID1. […] Bar represents the standard deviation (n=3). Panel b) depicts the results of a Scatchard plot for the data of binding shown in a. The Kd value was calculated (correlation coefficient R^2=0.96) from t three independent experimental results. Panel c) depicts the ^3H-GA association/dissociation rate to GID1. […] Bar represents the standard deviation (n=3). […] Upper panel, none of three recombinant proteins of mutant GID1s (GID1-1, 1-2, and 1-3) corresponding to the three gid1 alleles interacted with GA4. […] Bar represents the standard deviation (n=3). Bottom panel, Coomassie brilliant blue stain of the recombinant proteins used in this experiment. Dot represents GID or tag proteins in the SDS-PAGE profile. In this experiment, almost equal amounts of proteins were used for each (80 pmol). Panel e) depicts the gross morphologies of a GID1-overexpressing plant (Actin1 promoter-GID1, right) and wild type plant (control, left) three months after seeding. Bar=50 cm. f) dose-dependent GA response in the elongation of the second leaf sheath of GID1overexpressing plant (closed triangle) and wild type (closed circle). Bar represents the standard deviation (n=5).
In the gibberellin-binding assay, [1,2,16,17-^3H4]16,17-dihydro-GA4 was used as a labeled GA4. In vitro GA-binding assays were carried out using previous methods with some modifications (Nakajima, M. et al., Biochem. Biophys. Res. Comm. 241, 782-786 (1997)). […] The eluate of the binding buffer (0.6 ml) was discarded, the subsequent eluate (0.2 ml) was collected, and the radioactivity was measured. The specific binding activity, reflecting the number of displaceable GA binding sites, was calculated by subtracting the amount of nonspecific binding from the amount of total binding. […]
Next, the kinetics of the binding of GID1 to GA was analyzed. To calculate the Kd value of GID1 to GA, the saturability of GA binding was measured using various concentrations of GA4 derivative (FIG. 4a). […]

In a further test the target is T2, AtGID1c (Arabidopsis thaliana, UniProt Q940G6).
T2 construct: made in house; host or cells: E. coli
T2 sequence (Q940G6 1-344): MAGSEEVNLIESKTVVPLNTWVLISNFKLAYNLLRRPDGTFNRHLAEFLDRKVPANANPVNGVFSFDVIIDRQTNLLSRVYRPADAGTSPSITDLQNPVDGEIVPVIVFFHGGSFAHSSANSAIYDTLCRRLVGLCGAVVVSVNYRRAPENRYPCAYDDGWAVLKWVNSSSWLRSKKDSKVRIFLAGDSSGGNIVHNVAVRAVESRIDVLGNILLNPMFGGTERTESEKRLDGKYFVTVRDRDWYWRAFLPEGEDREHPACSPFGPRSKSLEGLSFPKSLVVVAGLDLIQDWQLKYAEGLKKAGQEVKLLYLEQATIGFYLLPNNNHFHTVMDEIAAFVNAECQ
The test is described as follows: Competitive ability of GA in AtGID1-GA binding (AtGID1c). As to conditions: for IC50: tracer 15 nM, mean of at least two measurements. The procedure:
(§1) In the gibberellin-binding assay, [1,2,16,17-^3H4]16,17-dihydro-GA4 was used as a labeled GA4. In vitro GA-binding assays were carried out using previous methods with some modifications (Nakajima, M. et al., Biochem. Biophys. Res. Comm. 241, 782-786 (1997)). The purified recombinant GID1 protein (400 pmol) was dissolved in 300 μl of binding buffer [20 mM Tris-HCl (pH 7.6), 5 mM 2-mercaptoethanol, and 0.1 M NaCl], and incubated with 100 μl of ^3H4-16,17-dihydroGA4 (6 pmol) for two hours at 25° C., either in the absence of non-labeled GA4 (total binding) or in the presence of 833-fold excess non-labeled GA4 (total non-specific binding). Then, 0.1 ml of the reaction mixture was loaded onto a NAP-5 column (Amersham Biosciences, Piscataway, N.J.). The eluate of the binding buffer (0.6 ml) was discarded, the subsequent eluate (0.2 ml) was collected, and the radioactivity was measured. The specific binding activity, reflecting the number of displaceable GA binding sites, was calculated by subtracting the amount of nonspecific binding from the amount of total binding. The same as above can also be carried out for other GAs.
(§2) Specifically, the coding region of the AtGID1 gene was amplified by PCR using specific primers designed based on the full-length cDNA sequence of the AtGID1 gene and having appropriate restriction sites at each end. After confirmation by sequence analysis, each cDNA fragment was ligated into pET32a vector (Novagen/Merck Biosciences, Madison, Wis., USA) or pGEX-4T-2 vector (Amersham Biosciences, Piscataway, N.J., USA; currently, a part of GE Healthcare). The production of recombinant proteins was confirmed by SDS-PAGE; vector cassettes were used as negative controls. GA binding assays were carried out similarly as described above using [1,2,16,17-^3H4]-16,17-dihydro-GA4 (4.55 TBq/mmol), which was custom-made by DuPont/NEN (Boston, Mass., USA). Non-labeled GA4 (1.25 mM) was used to measure non-specific binding. Saturation experiments for the kinetic analysis were carried out using ten concentrations of 16,17-dihydro-GA4 within the range of 25 to 1,500 nM. Competition assays were performed using [1,2,16,17-^3H4]-16,17-dihydro-GA4 at 15 nM and five concentrations of the non-labeled competitor. Recombinant RGA and GAI proteins were prepared using pET32a by a previously described method.
(§3) The ligand selectivity of each AtGID1 was examined by observing the competitive inhibition, by the addition of GA to the assay mixtures, of the binding between the recombinant proteins and tritiated 16,17-dihydro-GA4 (Table 2). The ligand selectivity was evaluated using the concentration of GA that inhibits 50% of the tracer (15 nM) binding (IC50 value).

The next test concerns the target T3, AtGID1b (Arabidopsis thaliana, UniProt Q9LYC1).
T3 construct: made in house; host or cells: E. coli
T3 sequence (Q9LYC1 1-358): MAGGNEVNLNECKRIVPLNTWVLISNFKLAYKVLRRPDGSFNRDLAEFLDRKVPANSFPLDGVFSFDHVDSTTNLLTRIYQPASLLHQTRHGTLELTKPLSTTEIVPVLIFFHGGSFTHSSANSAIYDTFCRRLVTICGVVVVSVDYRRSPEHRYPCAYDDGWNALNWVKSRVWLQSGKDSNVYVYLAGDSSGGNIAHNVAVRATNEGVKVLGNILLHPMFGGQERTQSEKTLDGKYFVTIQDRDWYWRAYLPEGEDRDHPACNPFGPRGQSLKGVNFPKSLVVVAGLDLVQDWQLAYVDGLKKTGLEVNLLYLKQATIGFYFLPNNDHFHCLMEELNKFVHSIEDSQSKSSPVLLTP
Put plainly: Competitive ability of GA in AtGID1-GA binding (AtGID1b). To be noted: for IC50: tracer 15 nM, mean of at least two measurements. The procedure: as §1, §2, §3

Another test addresses T4, AtGID1a (Arabidopsis thaliana, UniProt Q9MAA7).
T4 construct: made in house; host or cells: E. coli
T4 sequence (Q9MAA7 1-345): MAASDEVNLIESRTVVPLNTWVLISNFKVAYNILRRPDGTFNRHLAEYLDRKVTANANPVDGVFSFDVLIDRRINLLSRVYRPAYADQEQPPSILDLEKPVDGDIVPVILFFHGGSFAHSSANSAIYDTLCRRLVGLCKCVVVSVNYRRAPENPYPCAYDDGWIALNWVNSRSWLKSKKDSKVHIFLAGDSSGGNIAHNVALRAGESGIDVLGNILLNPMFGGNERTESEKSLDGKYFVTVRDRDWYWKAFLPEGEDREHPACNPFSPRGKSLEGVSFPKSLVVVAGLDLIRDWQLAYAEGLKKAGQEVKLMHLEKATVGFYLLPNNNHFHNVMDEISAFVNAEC
Put plainly: Competitive ability of GA in AtGID1-GA binding (AtGID1a). To be noted: for IC50: tracer 15 nM, mean of at least two measurements. The procedure: as §1, §2, §3

For test [2], the target named is T1, GID1. Put plainly: Competition of various GAs in the binding of the 3H-GA4 derivative to GID1 protein. To be noted: for IC50: competition with tritiated GA4 derivative for binding to recombinant GID1, read-out: IC50 (concentration required for 50% inhibition); for Rel % (relative value): relative competition, GA4 given as 100. On the set-up: species or system rice. The procedure:
as §1
Thus, it was postulated that, like GID2, GID1 is involved in the degradation of SLR1, or that GID1 functions upstream of SLR1 in GA signaling. […] Based on this phenotypic characteristic of gid1, it was predicted that GID1 was involved in GA perception. To verify this possibility, the interactions between GID1 and radioisotope-labeled GA was directly examined using non-equilibrium gel filtration (Nakajima, M. et al., Biochem. Biophys. Res. Comm. 241, 782-786 (1997)). […] Next, ligand specificity of GID1 was tested by using competition between the tritiated GA4 derivative and various GAs. The concentration of each GA that is required for a 50% inhibition (IC50) of the binding of the tritiated GA4 derivative to GID1 is shown in Table 1. […] The IC50 value for each of these GAs was well consistent with their physiological activity.

T1 sequence (Q6L545 whole entry): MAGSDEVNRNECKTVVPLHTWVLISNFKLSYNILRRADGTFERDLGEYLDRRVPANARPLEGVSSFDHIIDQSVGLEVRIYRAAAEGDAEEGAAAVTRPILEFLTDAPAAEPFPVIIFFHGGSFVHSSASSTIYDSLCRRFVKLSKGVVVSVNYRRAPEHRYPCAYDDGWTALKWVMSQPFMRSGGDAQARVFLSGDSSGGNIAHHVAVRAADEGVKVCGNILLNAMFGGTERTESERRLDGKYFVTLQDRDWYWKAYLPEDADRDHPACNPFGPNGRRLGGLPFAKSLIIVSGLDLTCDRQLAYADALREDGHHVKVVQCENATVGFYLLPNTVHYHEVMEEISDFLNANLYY

On to “[1,2,16,17-^3H4]16,17-dihydro-GA4 [^3H4-16,17-dihydroGA4]”, for which the figures for the “half-time required for association/dissociation” value at GID1 [1] and at GID1 [1] (listed as GA4 derivative) were “within several minutes” and “several minutes or less”, respectively.

For the substance 3-epi-GA4, the “relative value, taking the value for GA4 as 100” value on AtGID1c, on AtGID1b and at AtGID1a was “(<0.1) %” throughout. Moreover, the IC50 at AtGID1c was greater than 300 µM; at AtGID1b, 100 µM; on AtGID1a it was greater than 300 µM; on GID1 [2], greater than 200 µM. For the same substance, the “Rel % (relative value)” value at GID1 [2] is listed as “(<0.1) %”.

methyl ester of GA4 [GA4-Me]: the “relative value, taking the value for GA4 as 100” value on AtGID1c was “(0.3) %”; on AtGID1b, “(0.3) %”; on AtGID1a, “(0.1) %”. Moreover, the IC50 on AtGID1c turned out to be 90 µM; on AtGID1b, 9 µM; on AtGID1a, 300 µM; at GID1 [2] it was 30 µM. Besides, the “Rel % (relative value)” value on GID1 [2] is recorded as “(0.6) %”.
